Key:
cGAS [1] = molecular target: T1, cGAS (Homo sapiens, UniProt Q8N884); test: Cellular assay to measure cGAS activity (IFNb AlphaLISA in THP1 cells stimulated by RDG-Adenovirus-GFP); assay type: cell-based; design: host or cells: THP1 cells differentiated with PMA and stimulated with RDG-Adenovirus-GFP; details: PMA-differentiated THP1 cells, RDG-Adenovirus-GFP at 1000 MOI; inhibition of IFNb production as marker for cGAS activity
Protocol: Cellular assay to measure cGAS activity: Use THP1 cell line from ATCC to determine inhibition of cGAS activity by test compounds in human cells. Plate cells on 96-well plates at 0.2×10^6/well and differentiate with phorbol myristate acetate (PMA) at 37° C./5% CO2. After 24 hours, replace PMA containing media with media lacking PMA and further incubate overnight. Stimulate cells were then by RDG-Adenovirus-GFP (Vector Biolabs #1768) at 1000 MOI for 4 hours prior to the addition of test compounds. After overnight incubation, transfer 10 μL of the media from each well to a new plate for IFNb analysis as a marker for cGAS activity. Measure quantification of IFNb with an IFNb AlphaLISA Detection kit (Perkin Elmer AL3133F) by mixing the acceptor beads with the cell supernatant followed by the addition of the biotinylated antibody and donor beads. Measure the relative fluorescence signal produced from the interaction of the donor and acceptor beads by a PHERAStar AlphaLISA protocol and evaluate the inhibitory effect of a compound by plotting specific inhibition of IFNb production against log concentration of the test compound. Calculate IC50 values using a 4-parameter non-linear logistic equation (y=(S0+((SInf−S0)/(1+((qAC50/x)^nHill))))).

cGAS [2] = molecular target: T1, cGAS; test: In vitro inhibition assay of cGAS activity (cGAMP production, RapidFire mass spectrometry); assay type: biochemical; design: Insert cDNA encoding full-length of human cGAS; His6; made in house; host or cells: E. coli BL21(DE3); details: 10 nM recombinant human cGAS, 60 nM 75-bp dsDNA, 50 μM ATP, 50 μM GTP, 3 hrs
Protocol: Expression and Purification of Recombinant cGAS Protein: Insert cDNA encoding full-length of human cGAS into a modified bacterial expression vector containing an in-frame His6-tag. Induce the E. coli strain BL21(DE3) harboring the plasmid with 1 mM IPTG (Isopropyl β-D-1-thiogalactopyranoside) at 18° C. overnight. Purify the His6-tagged cGAS protein over HISpur Ni-NTA resin in the presence of benzonase and RNase followed by Superdex 200 size exclusion chromatography with storage buffer (50 mM Tris-HCl pH 7.5, 300 mM NaCl, 1 mM DTT, 10% glycerol).
In vitro inhibition assay of cGAS activity: Add a 5 μL mixture containing 10 mM Tris-Cl pH 7.5, 50 mM NaCl, 5 mM MgCl2, 1 mM DTT, 0.01% Triton X-100, 60 nM 75-bp dsDNA, 50 μM ATP, 50 μM GTP, 10 nM of recombinant human cGAS, and serial dilutions of a test compound in DMSO to a 384-well plate and incubate at ambient temperature for 3 hrs. Quench the reaction by the addition of 100 μL of stop solution containing 0.1% formic acid and 0.1 μM internal standard (3′3′-difluoro cGAMP). Measure the amount of cGAMP produced by RapidFire 365 mass spectrometry and evaluate inhibitory effect of a compound by plotting percent specific inhibition of cGAMP production against log concentration of the test compound. Calculate IC50 values using a 4-parameter non-linear logistic equation (y=(S0+((Sinf−S0)/(1+((qAC50/x)^nHill))))).

T1 sequence (Q8N884 whole entry): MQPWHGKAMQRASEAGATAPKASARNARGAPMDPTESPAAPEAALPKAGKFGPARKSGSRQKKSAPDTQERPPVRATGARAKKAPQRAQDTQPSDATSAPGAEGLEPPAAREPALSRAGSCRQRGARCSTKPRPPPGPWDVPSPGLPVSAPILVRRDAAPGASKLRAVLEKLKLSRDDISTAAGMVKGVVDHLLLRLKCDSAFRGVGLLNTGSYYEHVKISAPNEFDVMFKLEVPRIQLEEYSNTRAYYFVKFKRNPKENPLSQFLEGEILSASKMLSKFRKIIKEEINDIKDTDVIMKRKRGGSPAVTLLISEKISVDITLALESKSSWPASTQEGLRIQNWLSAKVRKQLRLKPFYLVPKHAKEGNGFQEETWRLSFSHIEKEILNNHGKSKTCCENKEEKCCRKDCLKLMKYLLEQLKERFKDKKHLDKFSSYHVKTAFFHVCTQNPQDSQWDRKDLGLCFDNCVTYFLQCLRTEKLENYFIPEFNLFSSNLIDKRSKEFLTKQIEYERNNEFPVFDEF

| SMILES | IC50 (cGAS [1]) | IC50 (cGAS [2]) |
| --- | --- | --- |
| CC1C(=O)NCCc2[nH]c3c(Cl)c(Cl)cc(OCC(F)F)c3c21 (racemic) [Example 76, 7,8-Dichloro-10-(2,2-difluoroethoxy)-1-methyl-3,4,5,6-tetrahydroazepino[4,5-b]indol-2(1H)-one] | 1470 nM | 38.6 nM |
| CC1C(=O)NCCc2c1c1c(NCCO)cc(Cl)c(Cl)c1n2C(F)F (racemic) [Example 140, 7,8-Dichloro-6-(difluoromethyl)-10-((2-hydroxyethyl)amino)-1-methyl-3,4,5,6-tetrahydroazepino[4,5-b]indol-2(1H)-one] | 1280 nM | 16.4 nM |
| C[C@H]1CNC(=O)[C@H](C)c2c1[nH]c1c(Cl)c(Cl)cc(NC(=O)CO)c21 (racemic) [Example 158, trans-N-(7,8-dichloro-1,5-dimethyl-2-oxo-1,2,3,4,5,6-hexahydroazepino[4,5-b]indol-10-yl)-2-hydroxyacetamide] | 341 nM | 19.7 nM |
| COCCC1CNC(=O)Cc2c1[nH]c1c(Cl)c(Cl)cc(-c3cnn(C)n3)c21 (racemic) [Example 166, 7,8-Dichloro-5-(2-methoxyethyl)-10-(2-methyl-2H-1,2,3-triazol-4-yl)-3,4,5,6-tetrahydroazepino[4,5-b]indol-2(1H)-one] | 1020 nM | 20.7 nM |
| COCC[C@@H]1CNC(=O)[C@@H](C)c2c1[nH]c1c(Cl)c(Cl)cc(NCCO)c21 (racemic) [Example 169, trans-7,8-Dichloro-10-((2-hydroxyethyl)amino)-5-(2-methoxyethyl)-1-methyl-3,4,5,6-tetrahydroazepino[4,5-b]indol-2(1H)-one] | 1130 nM | 26.2 nM |
| COCC[C@@H]1CNC(=O)[C@H](C)c2c1[nH]c1c(Cl)c(Cl)cc(NCCO)c21 (racemic) [Example 170, cis 7,8-Dichloro-10-((2-hydroxyethyl)amino)-5-(2-methoxyethyl)-1-methyl-3,4,5,6-tetrahydroazepino[4,5-b]indol-2(1H)-one] | 473 nM | 27.7 nM |
| Cn1ncc(-c2cc(Cl)c(Cl)c3[nH]c4c(c23)CC(=O)NCC4CCC(F)F)n1 (racemic) [Example 177, 7,8-Dichloro-5-(3,3-difluoropropyl)-10-(2-methyl-2H-1,2,3-triazol-4-yl)-3,4,5,6-tetrahydroazepino[4,5-b]indol-2(1H)-one] | 841 nM | 23.1 nM |
| C[C@@H]1CNC(=O)[C@H](C)c2c1[nH]c1c(Cl)c(Cl)cc(NC(=O)CO)c21 (relative stereo) [Example 159, cis-N-(7,8-dichloro-1,5-dimethyl-2-oxo-1,2,3,4,5,6-hexahydroazepino[4,5-b]indol-10-yl)-2-hydroxyacetamide] | 1390 nM | 60.6 nM |
| Cn1ncc(-c2cc(Cl)c(Cl)c3[nH]c4c(c23)CC(=O)NC[C@H]4CCO)n1 (single isomer, unassigned) [Example 8A] | 168 nM | 15.6 nM |
| Cn1ncc(-c2cc(Cl)c(Cl)c3[nH]c4c(c23)CC(=O)NC[C@H]4CCO)n1 (single isomer, unassigned) [Example 8B] | 3140 nM | 214 nM |
| C[C@@H]1C(=O)NCCc2[nH]c3c(Cl)c(Cl)cc(OCC#N)c3c21 (single isomer, unassigned) [Example 16A] | 871 nM | 2.18 nM |
| C[C@@H]1C(=O)NCCc2[nH]c3c(Cl)c(Cl)cc(OCC#N)c3c21 (single isomer, unassigned) [Example 16B] | 1010 nM | 998 nM |
| CC[C@H]1C(=O)NCCc2[nH]c3c(Cl)c(Cl)cc(OCC#N)c3c21 (single isomer, unassigned) [Example 35] | 3690 nM | 43.8 nM |
| CC[C@H]1C(=O)NCCc2[nH]c3c(Cl)c(Cl)cc(OCC#N)c3c21 (single isomer, unassigned) [Example 36] | 1200 nM | 3950 nM |
| C[C@H]1C(=O)NCCc2[nH]c3c(Cl)c(Cl)cc(-c4cnn(C)n4)c3c21 (single isomer, unassigned) [Example 37] | 802 nM | 30.4 nM |
| COCC(=O)Nc1cc(Cl)c(Cl)c2[nH]c3c(c12)[C@@H](C)C(=O)NCC3 (single isomer, unassigned) [Example 40] | 787 nM | 27.3 nM |
| COCC(=O)Nc1cc(Cl)c(Cl)c2[nH]c3c(c12)[C@@H](C)C(=O)NCC3 (single isomer, unassigned) [Example 41] | > 10000 nM | 7170 nM |
| C[C@H](O)C(=O)Nc1cc(Cl)c(Cl)c2[nH]c3c(c12)[C@@H](C)C(=O)NCC3 (single isomer, unassigned) [Example 42] | > 10000 nM | 6440 nM |
| C[C@H](O)C(=O)Nc1cc(Cl)c(Cl)c2[nH]c3c(c12)[C@@H](C)C(=O)NCC3 (single isomer, unassigned) [Example 43] | 498 nM | 14.9 nM |
| COCCNc1cc(Cl)c(Cl)c2[nH]c3c(c12)[C@@H](C)C(=O)NCC3 (single isomer, unassigned) [Example 47] | 596 nM | 20.1 nM |
| COCCNc1cc(Cl)c(Cl)c2[nH]c3c(c12)[C@@H](C)C(=O)NCC3 (single isomer, unassigned) [Example 48] | > 10000 nM | 6490 nM |
| CC1C(=O)NCCc2[nH]c3c(Cl)c(Cl)cc(NCCO)c3c21 (single isomer, unassigned) [Example 50, 7,8-Dichloro-10-((2-hydroxyethyl)amino)-1-methyl-3,4,5,6-tetrahydroazepino[4,5-b]indol-2(1H)-one] | 286 nM | 9.62 nM |
| CC1C(=O)NCCc2c1c1c(NCCO)cc(Cl)c(Cl)c1n2C (single isomer, unassigned) [Example 51, 7,8-Dichloro-10-((2-hydroxyethyl)amino)-1,6-dimethyl-3,4,5,6-tetrahydroazepino[4,5-b]indol-2(1H)-one] | 1340 nM | 8.34 nM |
| C[C@H]1C(=O)NCCc2[nH]c3c(Cl)c(Cl)cc(NCCCO)c3c21 (single isomer, unassigned) [Example 53] | 471 nM | 17.3 nM |
| C[C@H]1C(=O)NCCc2[nH]c3c(Cl)c(Cl)cc(NCCCO)c3c21 (single isomer, unassigned) [Example 54] | 5660 nM | 4250 nM |
| C[C@@H](O)CNc1cc(Cl)c(Cl)c2[nH]c3c(c12)[C@@H](C)C(=O)NCC3 (single isomer, unassigned) [Example 55] | 1920 nM | 46.5 nM |

Next, values leading:

| IC50 (cGAS [1]) | IC50 (cGAS [2]) | SMILES |
| --- | --- | --- |
| 356 nM | 16.3 nM | C[C@@H]1C(=O)NCCc2[nH]c3c(Cl)c(Cl)cc(NC(=O)CO)c3c21 (single isomer, unassigned) [Example 12A] |
| 1700 nM | 748 nM | C[C@@H]1C(=O)NCCc2[nH]c3c(Cl)c(Cl)cc(NC(=O)CO)c3c21 (single isomer, unassigned) [Example 12B] |
| 344 nM | 7.3 nM | C[C@@H]1C(=O)NCCc2[nH]c3c(Cl)c(Cl)cc(OCCCO)c3c21 (single isomer, unassigned) [Example 14A] |
| 4450 nM | 302 nM | C[C@@H]1C(=O)NCCc2[nH]c3c(Cl)c(Cl)cc(OCCCO)c3c21 (single isomer, unassigned) [Example 14B] |
| 793 nM | 22.4 nM | CCOc1cc(Cl)c(Cl)c2[nH]c3c(c12)[C@H](C)C(=O)NCC3 (single isomer, unassigned) [Example 15A] |
| 8140 nM | 1090 nM | CCOc1cc(Cl)c(Cl)c2[nH]c3c(c12)[C@H](C)C(=O)NCC3 (single isomer, unassigned) [Example 15B] |
| 856 nM | 22.4 nM | C[C@@H]1C(=O)NCCc2[nH]c3c(Cl)c(Cl)cc(OCC(N)=O)c3c21 (single isomer, unassigned) [Example 17A] |
| 4080 nM | 1540 nM | C[C@@H]1C(=O)NCCc2[nH]c3c(Cl)c(Cl)cc(OCC(N)=O)c3c21 (single isomer, unassigned) [Example 17B] |

Source: patent publication US20240246979A1, “cGAS INHIBITORS” (Eli Lilly and Company, priority 2022, published 2024)
